Key:
[1] = system: neuron cultures from WT and GluN2A-KO mice; assay: Neuronal cell death by Hoechst DNA staining, WT and GluN2A-KO mouse neuron cultures; assay type: cell-based; conditions: for neuronal death: homocysteine 50 μM, 18 hours; for cell death: L-homocysteine 50 μM, 24 hours
Experimental: Neurons were subjected to staining with Hoechst 33342 dye for 15 minutes, washed extensively with PBS, and analyzed using fluorescent microscopy to assess nuclear damage. Imaging was performed with a Zeiss Axiovert 200M fluorescence microscope with attached AxioCam CCD camera using 20× objective lens (Carl Zeiss, Thomwood, N.Y.). To quantitatively assess the percentage of pyknotic nuclei a total of 1000 cells were counted for each set of experiments. Mean±SEM (n=3) were used for statistical comparison using ANOVA (Bonferroni's multiple comparison test). Differences were considered significant when p<0.05.
[…] Glutamate treated cells were then maintained in their original medium for another 17 hours. For some experiments, neurons were treated with L-homocysteine or glutamate in the presence of NVP-AAM077 or PD98059. The neurons were then fixed and stained with Hoechst 33342 dye as previously described (Poddar and Paul, 2009, J Neurochem 110:1095-1106). Percentage of pyknotic nuclei was quantitatively assessed by fluorescent microscopy to determine the extent of neuronal death.

[2] = system: ERK MAPK; assay: ERK MAPK phosphorylation in ipsilateral cortex after MCAO (immunoblot); assay type: in vivo, Wistar rats; conditions: HHcy rats, MCAO 60 min, three hours of reperfusion, vs vehicle treated rats
Experimental: FIG. 10. ERK MAPK phosphorylation. (A) Control and hyperhomocysteinemic (HHcy) rats were subjected to MCAO for 60 min followed by reperfusion (sham, 0, 3, 6, 12 h). Cortical tissue lysates from the ipsilateral hemisphere were analyzed by immunoblotting, using anti-pERK and anti-ERK antibodies. (B) Control, HHcy and HHcy rats treated with NVP-AAM077 (HHcy+NVP) were subjected to MCAO for 60 min followed by reperfusion for 3 h. Cortical tissue lysates from the ipsilateral hemisphere were analyzed by immunoblotting, using anti-pERK and anti-ERK antibodies. The extent of ERK MAPK phosphorylation was quantified using computer-assisted densitometry and Image J analysis. Values are mean±SEM (n=5). (A) *p<0.001 from corresponding control. (B) *p<0.001 from HHcy.
Next, whether a mild ischemic insult under hyperhomocysteinemic condition could lead to prolonged increase in ERK MAPK phosphorylation was evaluated using a middle cerebral artery occlusion (MCAO) model. Normal and hyperhomocysteinemic Wistar rats were subjected to MCAO for 60 minutes followed by reperfusion for specified time periods (0, 3, 6, 12 h). […] NVP-AM077, however, blocks the prolonged phosphrylation of ERK MAPK in hyperhomocysteinemic rats at three hours of reperfusion. […]

| Compound | neuronal death ([1]; cultures from GluN2A KO mice) | neuronal death ([1]; cultures from WT mice) | cell death ([1]; neurons from GluN2A-NMDAR knockout mice) | cell death ([1]; neurons from WT mice) | ERK MAPK phosphorylation in ipsilateral cortex [2] |
| --- | --- | --- | --- | --- | --- |
| N[C@@H](CCS)C(=O)O [L-homocysteine] | fails to induce neurotoxicity | significantly increases neuronal death | fails to alter cell death | significant increase in cell death | – |
| C[C@H](NC(c1cccc2[nH]c(=O)c(=O)[nH]c12)P(=O)(O)O)c1ccc(Br)cc1 (stereo partly drawn) [NVP-AAM077, ({[(1S)-1-(4-bromophenyl)ethyl]amino}-(2,3-dioxo-1,4-dihydroquinoxalin-5-yl)methyl)phosphonic acid] | – | – | – | – | significant reduction ERK MAPK phosphorylation |
